Results on one molecule are retold here after patent publication US20220354949A1, “NOVEL COMPOUNDS” (XENIOPRO GmbH, priority 2018, published 2022).

Holding throughout (assay type): cell-based
Assay [1] deals with A-431 cells (human epidermoid squamous cell carcinoma cells). In words: Proliferation assay (alamarBlue) with A-431 cells. Conditions: control at 40 μM, Table 85. The source says:
(§1) The antiproliferative activities of compounds falling under formula (Ia), (Ib) and (Ic), respectively, were investigated on cells or cell lines originating from a disorder of the haematopoietic system, including the myeloid cell compartment and the lymphoid cell compartment (T-cells and B-cells), the neuroendocrine system, the cervix, the breast, the ovaries, the lung, the gastrointestinal tract, and the mucosal epithelium, as well as from the skin epithelium and from the muscle. To this end, HL-60 cells, NB-4 cells, HH cells, RPMI-8402 cells, TANOUE cells, TT cells, HeLa cells, MDA-MB-231 cells, FU-OV-1 cells, LOU-NH91 cells, 23132/87 cells, CAL-27 cells, BHY cells, SCC-25 cells, A-431 cells, human primary epidermal keratinocytes (HPEK), and C2C12 cells were seeded into 96-well plates suitable for fluorescence assays (CORNING #3598) at following initial cell numbers: 1000 cells per well for HL-60; 1000 cells per well for NB-4; 5000 cells per well for HH; 5000 cells per well for RPMI-8402; 1500 cells per well for TANOUE; 9000 cells per well for TT; 2000 cells per well for HeLa; 3000 cells per well for MDA-MB-231; 3000 cells per well for FU-OV-1; 4000 cells per well for LOU-NH91; 2000 cells per well for 23132/87; 2000 cells per well for CAL-27; 1500 cells per well for BHY; 1500 cells per well for SCC-25; 700 cells per well for A-431; 1000 cells per well for HPEK; 500 cells per well for C2C12. The cells were treated with compounds at indicated final concentrations (diluted from the 1000× stock-solutions in DMSO to a final DMSO concentration of 0.1% v/v in H2O (Water For Injection, WFI, Fisherscientific #10378939)) or with the empty carrier DMSO at 0.1% v/v as control for 5 days. At day 5 after starting the treatments the cells were subjected to the alamarBlue® Proliferation Assay (Bio-Rad Serotec GmbH, BUF012B) according to the protocol of the manufacturer. The readout was taken with a multi-well plate-reader in the fluorescence mode with applying a filter for excitation at 560 nm (band width 10 nm) and for emission at 590 nm (band width 10 nm). Control treatments for growth inhibition with commercial compounds such as Methotrexate (MTREX) and Resveratrol (RES) were included on every plate. Some of the test compounds of the present invention were obtained and applied as their salts. According cases are indicated in the column “Specification” in Table 55 to Table 92 and by their sum formula in Table 93.
(§2) The assays were performed in duplicate or more replicates of independent single experiments each containing a six-fold replicate for every condition. For every individual plate, the measured fluorescence intensity values of the conditions with compound treatment were normalized against the corresponding equally weighted arithmetic mean of the fluorescence intensity values of the six DMSO treated control wells in order to obtain the relative values to a baseline level of 1.0.
(§3) Two independent outlier analyses were performed according to the methods by Peirce and Chauvenet (Ross, Journal of Engineering Technology 2003, 1-12). Outliers confirmed by at least one of the methods were excluded from the calculations but not more than one value out of six per compound within a single experiment. The weighted arithmetic mean (here abbreviated as AVEw) for each compound was calculated from the normalized values over all independent replicates of the single experiments comprising the six replicates each. The corresponding standard deviation for the weighted arithmetic mean was calculated according to the method described by Bronstein et al. (Bronstein, Semendjajew, Musiol, Müihlig, Taschenbuch der Mathematik, 5th edition 2001 (German), publisher: Verlag Harri Deutsch, Frankfurt am Main and Thun) and was combined with the Gauß' error propagation associated with the performed calculation for the normalization. The resulting standard deviation is herein referred to as “combined standard deviation”. […]

Assay [2] has as its system C2C12 cells (murine myoblast cells). In words: Proliferation assay (alamarBlue) with C2C12 cells. The text has this: (§4) The antiproliferative activities of compounds falling under formula (Ia), (Ib) and (Ic), respectively, were investigated on cells or cell lines originating from a disorder of the haematopoietic system, including the myeloid cell compartment and the lymphoid cell compartment (T-cells and B-cells), the neuroendocrine system, the cervix, the breast, the ovaries, the lung, the gastrointestinal tract, and the mucosal epithelium, as well as from the skin epithelium and from the muscle. To this end, HL-60 cells, NB-4 cells, HH cells, RPMI-8402 cells, TANOUE cells, TT cells, HeLa cells, MDA-MB-231 cells, FU-OV-1 cells, LOU-NH91 cells, 23132/87 cells, CAL-27 cells, BHY cells, SCC-25 cells, A-431 cells, human primary epidermal keratinocytes (HPEK), and C2C12 cells were seeded into 96-well plates suitable for fluorescence assays (CORNING #3598) at following initial cell numbers: 1000 cells per well for HL-60; 1000 cells per well for NB-4; 5000 cells per well for HH; 5000 cells per well for RPMI-8402; 1500 cells per well for TANOUE; 9000 cells per well for TT; 2000 cells per well for HeLa; 3000 cells per well for MDA-MB-231; 3000 cells per well for FU-OV-1; 4000 cells per well for LOU-NH91; 2000 cells per well for 23132/87; 2000 cells per well for CAL-27; 1500 cells per well for BHY; 1500 cells per well for SCC-25; 700 cells per well for A-431; 1000 cells per well for HPEK; 500 cells per well for C2C12. […] The readout was taken with a multi-well plate-reader in the fluorescence mode with applying a filter for excitation at 560 nm (band width 10 nm) and for emission at 590 nm (band width 10 nm). […]
(§5) The assays were performed in duplicate or more replicates of independent single experiments each containing a six-fold replicate for every condition. For every individual plate, the measured fluorescence intensity values of the conditions with compound treatment were normalized against the corresponding equally weighted arithmetic mean of the fluorescence intensity values of the six DMSO treated control wells in order to obtain the relative values to a baseline level of 1.0. […]

Assay [3] concerns 23132/87 cells (human gastric adenocarcinoma cells). Nature of the assay: Proliferation assay (alamarBlue) with 23132/87 cells. The note with it: for Activity Range (weighted arithmetic mean AVEw of normalized fluorescence intensity, relative to DMSO basis level 1.0): 20 μM; for Activity Range (weighted arithmetic mean of normalized fluorescence intensity, relative to DMSO basis level 1.0): control at 40 μM.
Excerpt: as §1, §2, §3

The test system of assay [4] is LOU-NH91 cells (human lung squamous cell carcinoma cells). Nature of the assay: Proliferation assay (alamarBlue) with LOU-NH91 cells. Conditions: for Activity Range (weighted arithmetic mean AVEw of normalized fluorescence intensity, relative to DMSO basis level 1.0): 20 μM; for Activity Range (weighted arithmetic mean of normalized fluorescence intensity, relative to DMSO basis level 1.0): control at 40 μM.
Excerpt: as §1, §2, §3

The test system of assay [5] is human epidermal keratinocyte progenitors (HPEKp, pooled). Nature of the assay: Proliferation assay (alamarBlue) with HPEKp cells.
Excerpt: as §4, §5

Assay [6] relates to TT cells (human medullary thyroid carcinoma cells). Nature of the assay: Proliferation assay (alamarBlue) with TT cells.
Excerpt: as §1, §2, §3

Assay [7] concerns CAL-27 cells (human tongue squamous cell carcinoma cells). Nature of the assay: Proliferation assay (alamarBlue) with CAL-27 cells. Conditions: for Activity Range (weighted arithmetic mean AVEw of normalized fluorescence intensity, relative to DMSO basis level 1.0): 20 μM; for Activity Range (weighted arithmetic mean of normalized fluorescence intensity, relative to DMSO basis level 1.0): control at 40 μM.
Excerpt: as §1, §2, §3

Regarding `Oc1ccc(C=Cc2cc(O)cc(O)c2)cc1` [RES, Resveratrol], the “Activity Range (weighted arithmetic mean of normalized fluorescence intensity, relative to DMSO basis level 1.0)” value turned out to be 0.2 ± 0.0 in assay [1]; 0.2 ± 0.0 in assay [3] (Table 75); 0.2 ± 0.0 in assay [3] (Table 76); 0.7 ± 0.0 in assay [4] (Table 73); 0.7 ± 0.0 in assay [4] (Table 74); 0.4 ± 0.3 in assay [7] (Table 77). Also, in assay [7] (Table 78), the “Activity Range (weighted arithmetic mean of normalized fluorescence intensity, relative to DMSO basis level 1.0)” value is on record as 0.4 ± 0.3. Moreover, the “Activity Range: weighted arithmetic mean (AVEw) of normalized fluorescence intensity, relative to DMSO basis level of 1.0” value in assay [2] (compounds and controls at 20 μM) is given as 0.8 ± 0.0; in assay [2] (control at 40 μM), 0.2 ± 0.1; in assay [5] (control at 20 μM), 0.2 ± 0.0; in assay [5] (control at 40 μM), 0.2 ± 0.0. Besides, the “Activity Range (weighted arithmetic mean AVEw of normalized fluorescence intensity, relative to DMSO basis level 1.0)” value in assay [3] (Table 75 (novel compounds)) was 0.5 ± 0.1; in assay [3] (Table 76 (compounds disclosed in PCT/EP2018/054686)), 0.5 ± 0.1; in assay [4] (Table 73 (novel compounds)), 0.9 ± 0.1; in assay [4] (Table 74 (compounds disclosed in PCT/EP2018/054686)), 0.9 ± 0.1; in assay [7] (Table 77 (novel compounds)), 0.8 ± 0.1; in assay [7] (Table 78 (compounds disclosed in PCT/EP2018/054686)), 0.8 ± 0.1. The “Activity Range: weighted arithmetic mean (AVEw) of normalized fluorescence intensity relative to DMSO basis level 1.0” value in assay [6] (compound at 20 μM, Table 65 (novel compounds)) is 0.9 ± 0.0; in assay [6] (compound at 20 μM, Table 66 (compounds of PCT/EP2018/054686)), 0.9 ± 0.0; in assay [6] (control at 40 μM, Table 65) it was 0.7 ± 0.0; in assay [6] (control at 40 μM, Table 66) it was 0.7 ± 0.0.
